Experimental findings from PubChem BioAssay (NCI) are described below.

Some test systems named below: MDA-MB-231 breast; HOP-92 NSCLC; BT-549 breast; OVCAR-3 ovarian; RXF 393 renal; SK-MEL-5 melanoma; SF-268 CNS; LOX IMVI melanoma; 786-0 renal; OVCAR-5 ovarian.
Common to all, as to test: NCI tumour cell line growth inhibition, 48 h

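Results reflect a 48-hour exposure of cells in 96-well plates to compound at five concentrations. At the GI50, growth is halved. Definition used: TGI = concentration required for complete inhibition of growth.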

Take `C=C1C(=O)O[C@H]2[C@H]1CC/C(COC(=O)/C=C\C(=O)NCc1ccc(Cn3c(=O)sn(-c4ccc(OC)cc4)c3=O)cc1)=C\CC[C@@]1(C)O[C@@H]21`: the GI50 was 0.701 µM with MDA-MB-231 breast; 0.587 µM in the experiment with HOP-92 NSCLC; 0.562 µM in the experiment on BT-549 breast; 0.245 µM with OVCAR-3 ovarian; 0.51 µM in the experiment on RXF 393 renal; 0.828 µM in the experiment on SK-MEL-5 melanoma. Also, the GI50 in the experiment on SF-268 CNS is 0.693 µM; with LOX IMVI melanoma, 0.36 µM; in the experiment on 786-0 renal, 0.665 µM; in the experiment on OVCAR-5 ovarian it was 0.825 µM. The TGI in the experiment with MDA-MB-231 breast came out at 1.7 µM; in the experiment with HOP-92 NSCLC, 1.36 µM; in the experiment with BT-549 breast, 1.29 µM; in the experiment with OVCAR-3 ovarian, 0.898 µM; with RXF 393 renal, 1.17 µM; in the experiment with SK-MEL-5 melanoma, 1.53 µM. The TGI was 1.37 µM in the experiment with SF-268 CNS, 1.09 µM with LOX IMVI melanoma, 1.37 µM in the experiment with 786-0 renal and 1.71 µM with OVCAR-5 ovarian.
Regarding `Cc1ccc(Cl)cc1Nc1nc(C(F)(F)F)ccc1C(=O)N/N=C/c1c(Cl)cccc1Cl`, the GI50 with MDA-MB-231 breast was 0.524 µM; with HOP-92 NSCLC it was 1.14 µM; in the experiment on BT-549 breast it was 1.62 µM; in the experiment with OVCAR-3 ovarian, 0.285 µM; in the experiment on RXF 393 renal, 1.23 µM; with SK-MEL-5 melanoma it was 1.52 µM. In addition, the GI50 is 0.623 µM in the experiment with SF-268 CNS, 0.648 µM in the experiment with LOX IMVI melanoma, 0.588 µM in the experiment on 786-0 renal and 2.21 µM in the experiment on OVCAR-5 ovarian. For the same compound, the TGI is 2.85 µM in the experiment on MDA-MB-231 breast; 6.92 µM in the experiment on HOP-92 NSCLC; 7.09 µM in the experiment with BT-549 breast; 2.7 µM in the experiment with OVCAR-3 ovarian; 3.48 µM in the experiment on RXF 393 renal; 3.82 µM in the experiment on SK-MEL-5 melanoma. Further, the TGI came to 13.4 µM with SF-268 CNS, 5.15 µM with LOX IMVI melanoma, 1.38 µM in the experiment with 786-0 renal and 20.4 µM with OVCAR-5 ovarian.
As for `CCCN(CCC)c1ccc(C=O)cc1`, the GI50 was over 100 µM in the experiment with MDA-MB-231 breast; 13 µM in the experiment with HOP-92 NSCLC; 35.4 µM with BT-549 breast; 24.9 µM in the experiment on OVCAR-3 ovarian; 72.2 µM with RXF 393 renal; 20.7 µM in the experiment with SK-MEL-5 melanoma. Moreover, the GI50 was 53.2 µM in the experiment with SF-268 CNS, 59.6 µM in the experiment with LOX IMVI melanoma, 81 µM in the experiment on 786-0 renal and over 100 µM in the experiment with OVCAR-5 ovarian. Besides, the TGI was over 100 µM in the experiment with MDA-MB-231 breast; 66.2 µM in the experiment on HOP-92 NSCLC; over 100 µM in the experiment on BT-549 breast; over 87.4 µM with OVCAR-3 ovarian; over 100 µM in the experiment on RXF 393 renal; 54.5 µM with SK-MEL-5 melanoma. Further, the TGI in the experiment on SF-268 CNS, in the experiment on LOX IMVI melanoma, with 786-0 renal and with OVCAR-5 ovarian was over 100 µM throughout.
In the case of `CCOC(=O)C1=C(N)Oc2c(sc3c(C)cccc23)C1c1ccc(Cl)cc1` (stereo not given), the GI50 in the experiment on MDA-MB-231 breast is 4.29 µM; in the experiment on HOP-92 NSCLC, 3.83 µM; in the experiment with BT-549 breast, 3.3 µM; in the experiment on OVCAR-3 ovarian, 2.69 µM; in the experiment on RXF 393 renal, 1.45 µM; in the experiment on SK-MEL-5 melanoma it was 4.04 µM. The GI50 with SF-268 CNS was 6.13 µM; with LOX IMVI melanoma, 3.03 µM; with 786-0 renal it was 4.05 µM; with OVCAR-5 ovarian, 4.03 µM. The TGI came out at 17.4 µM in the experiment on MDA-MB-231 breast; 20.7 µM in the experiment on HOP-92 NSCLC; 15.8 µM in the experiment on BT-549 breast; 9.61 µM with OVCAR-3 ovarian; 4.47 µM with RXF 393 renal; 14.4 µM in the experiment with SK-MEL-5 melanoma. Also, the TGI worked out at 22.4 µM with SF-268 CNS, 13.7 µM in the experiment with LOX IMVI melanoma, 16.8 µM with 786-0 renal and 15.7 µM in the experiment with OVCAR-5 ovarian.
For `C#CC[C@@H]1C[C@]2(C)[C@H]3CC[C@@H]4[C@H]5[C@H](C(=C)C)CC[C@]5(C(=O)O)CC[C@@]4(C)[C@]3(C)CC[C@H]2C(C)(C)[C@H]1O`, the GI50 is 2.32 µM in the experiment with MDA-MB-231 breast; 1.7 µM in the experiment on HOP-92 NSCLC; 2.52 µM in the experiment with BT-549 breast; 1.7 µM with OVCAR-3 ovarian; 1.7 µM with RXF 393 renal; 2.27 µM in the experiment with SK-MEL-5 melanoma. The GI50 in the experiment with SF-268 CNS is 2.81 µM; with LOX IMVI melanoma, 2.63 µM; in the experiment on 786-0 renal, 1.71 µM; with OVCAR-5 ovarian it was 3.07 µM. For the same compound, the TGI in the experiment on MDA-MB-231 breast was found to be 6.11 µM; in the experiment with HOP-92 NSCLC it was 4.18 µM; in the experiment with BT-549 breast, 8.73 µM; in the experiment on OVCAR-3 ovarian, 3.15 µM; in the experiment on RXF 393 renal it was 3.52 µM; in the experiment on SK-MEL-5 melanoma, 5.58 µM. Besides, the TGI came to 10.1 µM with SF-268 CNS, 8.67 µM in the experiment on LOX IMVI melanoma, 3.4 µM in the experiment with 786-0 renal and 11.6 µM in the experiment with OVCAR-5 ovarian.
As to `O=C(Nc1ccc(Cl)c(Cl)c1)C(=O)C(C1OC(=O)c2ccccc21)[N+](=O)[O-]` (stereo not given), the TGI with MDA-MB-231 breast, in the experiment on HOP-92 NSCLC, in the experiment on BT-549 breast, in the experiment with OVCAR-3 ovarian, in the experiment on RXF 393 renal and in the experiment with SK-MEL-5 melanoma was over 100 µM throughout. For the same compound, the TGI with SF-268 CNS, in the experiment with LOX IMVI melanoma, in the experiment with 786-0 renal and with OVCAR-5 ovarian was over 100 µM each time.
`C[N+](C)(C)CCC(=O)N1C/C(=C\c2ccccc2)C(=O)/C(=C/c2ccccc2)C1`: the TGI in the experiment on MDA-MB-231 breast turned out to be 9.82 µM; in the experiment with HOP-92 NSCLC it was 38.7 µM; in the experiment with BT-549 breast it was 4.95 µM; with OVCAR-3 ovarian, 9.31 µM; with RXF 393 renal it was 28.3 µM; in the experiment on SK-MEL-5 melanoma, 22.6 µM. Besides, the TGI in the experiment with SF-268 CNS stood at 13 µM; with LOX IMVI melanoma, 3.46 µM; with 786-0 renal, 5.46 µM; with OVCAR-5 ovarian, 30.6 µM.
`C=CCCC(O)c1ccc(C(O)CCCCCCCCCCCC)o1` (stereo not given): the GI50 with MDA-MB-231 breast is 20.1 µM; with HOP-92 NSCLC, 25.5 µM; in the experiment on BT-549 breast it was 19.9 µM; in the experiment on OVCAR-3 ovarian it was 18.7 µM; in the experiment on RXF 393 renal, 16 µM; with SK-MEL-5 melanoma it was 20.1 µM. The GI50 with SF-268 CNS is over 100 µM; in the experiment on LOX IMVI melanoma, 16.2 µM; with 786-0 renal, 17.6 µM; in the experiment with OVCAR-5 ovarian, 21.5 µM. Moreover, the TGI in the experiment on MDA-MB-231 breast amounted to 38.5 µM; with HOP-92 NSCLC, 51.2 µM; in the experiment on BT-549 breast, 42.2 µM; in the experiment on OVCAR-3 ovarian, 35.7 µM; in the experiment with RXF 393 renal it was 33.2 µM; in the experiment on SK-MEL-5 melanoma, 35.7 µM. The TGI with SF-268 CNS was over 100 µM; with LOX IMVI melanoma, 29.7 µM; in the experiment with 786-0 renal, 31.5 µM; with OVCAR-5 ovarian, 41.4 µM.
